Measured values taken from patent publication US8703768B2, “Nitrogen containing heteroaryl compounds” (Hoffmann-La Roche Inc., priority 2010, dated 2014).

Biological target: human PDE10A (Homo sapiens (Human), UniProt Q9Y233)
Experiment: human PDE10A full length Scintillation Proximity Assay (SPA)
Type: biochemical
Settings: 50 nM cGMP and 50 nM [3H]-cGMP, 20 minutes at room temperature; read-out: PDE10A inhibition IC50
Method in brief: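 Radiometric SPA read-out: after 20 min at room temperature with [^3H]-cGMP/cGMP substrate, zinc sulphate (18 mM) bead stop reagent added and counts read after 1 h. Non-specific signal defined without enzyme; full-length protein used.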

Sequence of human PDE10A (Q9Y233 other isoform, or with tags, fused parts or gaps): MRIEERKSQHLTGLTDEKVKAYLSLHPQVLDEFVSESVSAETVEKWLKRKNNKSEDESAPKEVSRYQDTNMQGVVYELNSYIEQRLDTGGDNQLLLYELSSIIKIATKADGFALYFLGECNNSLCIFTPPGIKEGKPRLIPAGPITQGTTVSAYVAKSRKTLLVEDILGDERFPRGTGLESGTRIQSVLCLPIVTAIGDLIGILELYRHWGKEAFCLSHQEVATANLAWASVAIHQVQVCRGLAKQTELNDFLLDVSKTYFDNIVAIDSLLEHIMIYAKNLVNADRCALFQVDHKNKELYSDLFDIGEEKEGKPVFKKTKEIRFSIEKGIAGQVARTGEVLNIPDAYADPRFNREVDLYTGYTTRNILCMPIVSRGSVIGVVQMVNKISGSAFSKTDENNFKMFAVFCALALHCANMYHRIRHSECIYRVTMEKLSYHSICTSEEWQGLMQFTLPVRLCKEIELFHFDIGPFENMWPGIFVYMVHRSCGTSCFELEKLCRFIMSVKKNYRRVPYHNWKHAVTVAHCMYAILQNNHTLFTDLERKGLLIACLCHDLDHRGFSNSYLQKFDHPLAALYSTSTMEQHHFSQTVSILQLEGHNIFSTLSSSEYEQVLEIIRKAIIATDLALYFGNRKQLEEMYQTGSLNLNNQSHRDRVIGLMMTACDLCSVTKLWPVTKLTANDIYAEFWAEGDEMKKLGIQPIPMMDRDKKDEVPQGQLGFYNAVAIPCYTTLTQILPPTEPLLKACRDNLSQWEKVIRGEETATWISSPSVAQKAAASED

Compound	IC50 [nM]
Cn1ncc(NC(=O)c2nc(C3CC3)cnc2Nc2cncnc2)c1C(=O)NCC1CCCO1 (stereo not drawn) [Example 232, 6-Cyclopropyl-3-(pyrimidin-5-ylamino)-pyrazine-2-carboxylic acid {1-methyl-5-[(tetrahydro-furan-2-ylmethyl)-carbamoyl]-1H-pyrazol-4-yl}-amide]	4
CC(CO)NC(=O)c1ccncc1NC(=O)c1nc(C2CC2)ccc1Nc1cncnc1 (stereo not drawn) [Example 66, 6-Cyclopropyl-3-(pyrimidin-5-ylamino)-pyridine-2-carboxylic acid [4-(2-hydroxy-1-methyl-ethylcarbamoyl)-pyridin-3-yl]-amide]	47.8
CNC(=O)c1nn(C)cc1NC(=O)c1nc(C2CCCO2)cnc1Nc1cncnc1 (stereo not drawn) [Example 96, 3-(Pyrimidin-5-ylamino)-6-(tetrahydro-furan-2-yl)-pyrazine-2-carboxylic acid (1-methyl-3-methylcarbamoyl-1H-pyrazol-4-yl)-amide]	96
CNC(=O)c1nn(CC(F)(F)F)cc1NC(=O)c1nc(C2CC2)ccc1Nc1cncnc1 [Example 8, 6-Cyclopropyl-3-(pyrimidin-5-ylamino)-pyridine-2-carboxylic acid [3-methylcarbamoyl-1-(2,2,2-trifluoro-ethyl)-1H-pyrazol-4-yl]-amide]	140
CCn1ncc(NC(=O)c2nc(C3CC3)cnc2Nc2cncnc2)c1C(=O)N1CCOCC1 [Example 170, 6-Cyclopropyl-3-(pyrimidin-5-ylamino)-pyrazine-2-carboxylic acid [1-ethyl-5-(morpholine-4-carbonyl)-1H-pyrazol-4-yl]-amide]	88.9
Cn1cc(NC(=O)c2nc(C3CC3)ccc2Nc2cncnc2)c(C(=O)NC2CCC2)n1 [Example 33, 6-Cyclopropyl-3-(pyrimidin-5-ylamino)-pyridine-2-carboxylic acid (3-cyclobutylcarbamoyl-1-methyl-1H-pyrazol-4-yl)-amide]	3.1
CC1CCCCN1C(=O)c1c(NC(=O)c2nc(C3CC3)cnc2Nc2cncnc2)cnn1C (stereo not drawn) [Example 235, 6-Cyclopropyl-3-(pyrimidin-5-ylamino)-pyrazine-2-carboxylic acid [1-methyl-5-(2-methyl-piperidine-1-carbonyl)-1H-pyrazol-4-yl]-amide]	34
COCC(C)NC(=O)c1ccncc1NC(=O)c1nc(C2CC2)ccc1Nc1cncnc1 (stereo not drawn) [Example 72, 6-Cyclopropyl-3-(pyrimidin-5-ylamino)-pyridine-2-carboxylic acid [4-(2-methoxy-1-methyl-ethylcarbamoyl)-pyridin-3-yl]-amide]	4.2
CNC(=O)c1c(NC(=O)c2nc(C(C)=O)cnc2Nc2cncnc2)cnn1C [Example 184, 6-Acetyl-3-(pyrimidin-5-ylamino)-pyrazine-2-carboxylic acid (1-methyl-5-methylcarbamoyl-1H-pyrazol-4-yl)-amide]	162
CC(C)c1cc(C(=O)N2CCOCC2)c(NC(=O)c2nc(C3CC3)ccc2Nc2cncnc2)s1 [Example 91, 6-Cyclopropyl-3-(pyrimidin-5-ylamino)-pyridine-2-carboxylic acid [5-isopropyl-3-(morpholine-4-carbonyl)-thiophen-2-yl]-amide]	27.5
O=C(Nc1cnccc1C(=O)N1CC(O)C1)c1nc(C2CC2)ccc1Nc1cncnc1 [Example 82, 6-Cyclopropyl-3-(pyrimidin-5-ylamino)-pyridine-2-carboxylic acid [4-(3-hydroxy-azetidine-1-carbonyl)-pyridin-3-yl]-amide]	58.5
CNC(=O)c1nc(-c2ccccc2)sc1NC(=O)c1nc(C2CC2)ccc1Nc1cncnc1 [Example 64, 6-Cyclopropyl-3-(pyrimidin-5-ylamino)-pyridine-2-carboxylic acid (4-methylcarbamoyl-2-phenyl-thiazol-5-yl)-amide]	1110

The remaining lines, values ahead:

IC50 [nM]	Compound
215	CN(CC(O)CO)C(=O)c1ccncc1NC(=O)c1nc(C2CC2)ccc1Nc1cncnc1 (stereo not drawn) [Example 86, 6-Cyclopropyl-3-(pyrimidin-5-ylamino)-pyridine-2-carboxylic acid {4-[(2,3-dihydroxy-propyl)-methyl-carbamoyl]-pyridin-3-yl}-amide]
38	CCN(CC)C(=O)c1c(NC(=O)c2nc(C3CC3)cnc2Nc2cncnc2)cnn1C [Example 228, 6-Cyclopropyl-3-(pyrimidin-5-ylamino)-pyrazine-2-carboxylic acid (5-diethylcarbamoyl-1-methyl-1H-pyrazol-4-yl)-amide]
3.5	CNC(=O)c1cc(C#N)ccc1NC(=O)c1nc(C2CC2)cnc1Nc1cncnc1 [Example 261, 6-Cyclopropyl-3-(pyrimidin-5-ylamino)-pyrazine-2-carboxylic acid (4-cyano-2-methylcarbamoyl-phenyl)-amide]
2.8	CNC(=O)c1cccc(F)c1NC(=O)c1nc(C2CC2)cnc1Nc1cncnc1 [Example 290, 6-Cyclopropyl-3-(pyrimidin-5-ylamino)-pyrazine-2-carboxylic acid (2-fluoro-6-methylcarbamoyl-phenyl)-amide]
28	CN(C)C(=O)c1cc(F)c(F)cc1NC(=O)c1nc(C2CC2)cnc1Nc1cncnc1 [Example 284, 6-Cyclopropyl-3-(pyrimidin-5-ylamino)-pyrazine-2-carboxylic acid (2-dimethylcarbamoyl-4,5-difluoro-phenyl)-amide]
19.3	CN(C)C(=O)c1ccc(F)cc1NC(=O)c1nc(C2CC2)cnc1Nc1cncnc1 [Example 294, 6-Cyclopropyl-3-(pyrimidin-5-ylamino)-pyrazine-2-carboxylic acid (2-dimethylcarbamoyl-5-fluoro-phenyl)-amide]
335	CN(C)C(=O)c1ccc(F)c(F)c1NC(=O)c1nc(C2CC2)cnc1Nc1cncnc1 [Example 325, 6-Cyclopropyl-3-(pyrimidin-5-ylamino)-pyrazine-2-carboxylic acid (6-dimethylcarbamoyl-2,3-difluoro-phenyl)-amide]
1.1	Cn1ncc(NC(=O)c2nc(C3CC3)cnc2Nc2cncnc2)c1C(=O)NCC(C)(C)CO [Example 142, 6-Cyclopropyl-3-(pyrimidin-5-ylamino)-pyrazine-2-carboxylic acid [5-(3-hydroxy-2,2-dimethyl-propylcarbamoyl)-1-methyl-1H-pyrazol-4-yl]-amide]
9.6	CN(CC(C)(C)O)C(=O)c1ncccc1NC(=O)c1nc(C2CC2)cnc1Nc1cncnc1 [Example 123, 6-Cyclopropyl-3-(pyrimidin-5-ylamino)-pyrazine-2-carboxylic acid {2-[(2-hydroxy-2-methyl-propyl)-methyl-carbamoyl]-pyridin-3-yl}-amide]
1.1	CC(C)c1ccc(NC(=O)c2nc(C3CC3)cnc2Nc2cncnc2)c(C(=O)NCC(C)(C)O)c1 [Example 207, 6-Cyclopropyl-3-(pyrimidin-5-ylamino)-pyrazine-2-carboxylic acid [2-(2-hydroxy-2-methyl-propylcarbamoyl)-4-isopropyl-phenyl]-amide]
5.2	CNC(=O)c1nn(C)cc1NC(=O)c1nc(C2CC2)cnc1Nc1cncnc1 [Example 5, 6-Cyclopropyl-3-(pyrimidin-5-ylamino)-pyrazine-2-carboxylic acid (1-methyl-3-methylcarbamoyl-1H-pyrazol-4-yl)-amide]
1.3	CNC(=O)c1ncccc1NC(=O)c1nc(C2CC2)cnc1Nc1cncnc1 [Example 128, 6-Cyclopropyl-3-(pyrimidin-5-ylamino)-pyrazine-2-carboxylic acid (2-methylcarbamoyl-pyridin-3-yl)-amide]
